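Method: 48-hour compound exposure of cells in 96-well plates, five concentrations, linear interpolation of endpoints. TGI is the concentration that stops growth completely.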
Columns and labels:
Assay in all cases: DTP human tumour cell line panel, 48 h
U251 CNS = test system: U251 CNS
TK-10 renal = test system: TK-10 renal
HCC-2998 colon = test system: HCC-2998 colon
LOX IMVI melanoma = test system: LOX IMVI melanoma
ACHN renal = test system: ACHN renal
HCT-116 colon = test system: HCT-116 colon
BT-549 breast = test system: BT-549 breast
SNB-75 CNS = test system: SNB-75 CNS
SK-MEL-28 melanoma = test system: SK-MEL-28 melanoma
SN12C renal = test system: SN12C renal
DU-145 prostate = test system: DU-145 prostate
EKVX NSCLC = test system: EKVX NSCLC
SK-MEL-5 melanoma = test system: SK-MEL-5 melanoma
RPMI-8226 leukemia = test system: RPMI-8226 leukemia
UACC-257 melanoma = test system: UACC-257 melanoma
K-562 leukemia = test system: K-562 leukemia
MDA-MB-231 breast = test system: MDA-MB-231 breast
HL-60(TB) leukemia = test system: HL-60(TB) leukemia
CCRF-CEM leukemia = test system: CCRF-CEM leukemia
A498 renal = test system: A498 renal
SW-620 colon = test system: SW-620 colon
HS 578T breast = test system: HS 578T breast
786-0 renal = test system: 786-0 renal
NCI-H23 lung = test system: NCI-H23 lung
NCI-H460 lung = test system: NCI-H460 lung
UO-31 renal = test system: UO-31 renal
HCT-15 colon = test system: HCT-15 colon
IGROV1 ovarian = test system: IGROV1 ovarian
RXF 393 renal = test system: RXF 393 renal
HT29 colon = test system: HT29 colon
MDA-N = test system: MDA-N
OVCAR-8 ovarian = test system: OVCAR-8 ovarian
SF-268 CNS = test system: SF-268 CNS
HOP-92 NSCLC = test system: HOP-92 NSCLC
SF-295 CNS = test system: SF-295 CNS
NCI-H226 lung = test system: NCI-H226 lung
MDA-MB-435 = test system: MDA-MB-435
MOLT-4 leukemia = test system: MOLT-4 leukemia
SF-539 CNS = test system: SF-539 CNS
MCF7 breast = test system: MCF7 breast
COLO 205 colon = test system: COLO 205 colon
OVCAR-5 ovarian = test system: OVCAR-5 ovarian
OVCAR-3 ovarian = test system: OVCAR-3 ovarian
NCI/ADR-RES ovarian = test system: NCI/ADR-RES ovarian
HOP-62 NSCLC = test system: HOP-62 NSCLC
KM12 colon = test system: KM12 colon
PC-3 prostate = test system: PC-3 prostate
SNB-19 CNS = test system: SNB-19 CNS
NCI-H522 lung = test system: NCI-H522 lung
MALME-3M melanoma = test system: MALME-3M melanoma
A549 NSCLC = test system: A549 NSCLC
CAKI-1 renal = test system: CAKI-1 renal
OVCAR-4 ovarian = test system: OVCAR-4 ovarian
SK-MEL-2 melanoma = test system: SK-MEL-2 melanoma
SK-OV-3 ovarian = test system: SK-OV-3 ovarian
UACC-62 melanoma = test system: UACC-62 melanoma
M14 melanoma = test system: M14 melanoma
SR leukemia = test system: SR leukemia

**Q.** Which TGI (U251 CNS) does the source give for Nc1nc(Cl)c(/C=N\O)c(NCC2(CO)CC(=O)C2)n1 here?
**A.** > 100 µM

**Q.** What about the TGI (TK-10 renal) of the same molecule?
**A.** > 100 µM

**Q.** What about the TGI (HCC-2998 colon) of the same molecule?
**A.** > 100 µM

**Q.** And the TGI (LOX IMVI melanoma)?
**A.** > 100 µM

**Q.** What about the TGI (ACHN renal) of the same molecule?
**A.** > 100 µM

**Q.** And the TGI (HCT-116 colon)?
**A.** > 100 µM

**Q.** And the TGI (BT-549 breast)?
**A.** > 100 µM

**Q.** What about the TGI (SNB-75 CNS) of the same molecule?
**A.** > 100 µM

**Q.** And the TGI (SK-MEL-28 melanoma)?
**A.** > 100 µM

**Q.** And the TGI (SN12C renal)?
**A.** > 100 µM

**Q.** And the TGI (DU-145 prostate)?
**A.** > 100 µM

**Q.** And the TGI (EKVX NSCLC)?
**A.** > 100 µM

**Q.** And the TGI (SK-MEL-5 melanoma)?
**A.** > 100 µM

**Q.** What about the TGI (RPMI-8226 leukemia) of the same molecule?
**A.** > 100 µM

**Q.** What about the TGI (UACC-257 melanoma) of the same molecule?
**A.** > 100 µM

**Q.** What about the TGI (K-562 leukemia) of the same molecule?
**A.** > 100 µM

**Q.** And the TGI (MDA-MB-231 breast)?
**A.** > 100 µM

**Q.** What about the TGI (HL-60(TB) leukemia) of the same molecule?
**A.** > 100 µM

**Q.** And the TGI (CCRF-CEM leukemia)?
**A.** > 100 µM

**Q.** And the TGI (A498 renal)?
**A.** > 100 µM

**Q.** And the TGI (SW-620 colon)?
**A.** > 100 µM

**Q.** What about the TGI (HS 578T breast) of the same molecule?
**A.** 55.6 µM

**Q.** What about the TGI (786-0 renal) of the same molecule?
**A.** > 100 µM

**Q.** And the TGI (NCI-H23 lung)?
**A.** > 100 µM

**Q.** And the TGI (NCI-H460 lung)?
**A.** > 100 µM

**Q.** And the TGI (UO-31 renal)?
**A.** > 100 µM

**Q.** And the TGI (HCT-15 colon)?
**A.** > 100 µM

**Q.** And the TGI (IGROV1 ovarian)?
**A.** 70.4 µM

**Q.** What about the TGI (RXF 393 renal) of the same molecule?
**A.** > 100 µM

**Q.** And the TGI (HT29 colon)?
**A.** > 100 µM

**Q.** What about the TGI (MDA-N) of the same molecule?
**A.** > 100 µM

**Q.** What about the TGI (OVCAR-8 ovarian) of the same molecule?
**A.** > 100 µM

**Q.** What about the TGI (SF-268 CNS) of the same molecule?
**A.** > 100 µM

**Q.** And the TGI (HOP-92 NSCLC)?
**A.** > 100 µM

**Q.** What about the TGI (SF-295 CNS) of the same molecule?
**A.** > 100 µM

**Q.** And the TGI (NCI-H226 lung)?
**A.** > 100 µM

**Q.** What about the TGI (MDA-MB-435) of the same molecule?
**A.** > 100 µM

**Q.** What about the TGI (MOLT-4 leukemia) of the same molecule?
**A.** > 100 µM

**Q.** What about the TGI (SF-539 CNS) of the same molecule?
**A.** > 100 µM

**Q.** And the TGI (MCF7 breast)?
**A.** > 100 µM

**Q.** And the TGI (COLO 205 colon)?
**A.** > 100 µM

**Q.** And the TGI (OVCAR-5 ovarian)?
**A.** > 100 µM

**Q.** And the TGI (OVCAR-3 ovarian)?
**A.** > 100 µM

**Q.** What about the TGI (NCI/ADR-RES ovarian) of the same molecule?
**A.** > 100 µM

**Q.** What about the TGI (HOP-62 NSCLC) of the same molecule?
**A.** > 100 µM

**Q.** And the TGI (KM12 colon)?
**A.** 82.1 µM

**Q.** And the TGI (PC-3 prostate)?
**A.** > 100 µM

**Q.** And the TGI (SNB-19 CNS)?
**A.** > 100 µM

**Q.** And the TGI (NCI-H522 lung)?
**A.** > 100 µM

**Q.** What about the TGI (MALME-3M melanoma) of the same molecule?
**A.** > 100 µM

**Q.** What about the TGI (A549 NSCLC) of the same molecule?
**A.** > 100 µM

**Q.** What about the TGI (CAKI-1 renal) of the same molecule?
**A.** > 100 µM

**Q.** What about the TGI (OVCAR-4 ovarian) of the same molecule?
**A.** > 100 µM

**Q.** Which results are given for COc1cccc(NC(=O)c2c(SC)c(C#N)c(=O)n(N)c2N)c1?
**A.** TGI (U251 CNS): > 100 µM; TGI (TK-10 renal): > 100 µM; TGI (HCC-2998 colon): > 100 µM; TGI (LOX IMVI melanoma): > 100 µM; TGI (SK-MEL-2 melanoma): > 100 µM; TGI (ACHN renal): > 100 µM; TGI (HCT-116 colon): > 100 µM; TGI (BT-549 breast): > 100 µM; TGI (SNB-75 CNS): 81.3 µM; TGI (SK-MEL-28 melanoma): > 100 µM; TGI (SN12C renal): > 100 µM; TGI (SK-OV-3 ovarian): > 100 µM; TGI (EKVX NSCLC): > 100 µM; TGI (SK-MEL-5 melanoma): > 100 µM; TGI (UACC-257 melanoma): > 100 µM; TGI (K-562 leukemia): > 100 µM; TGI (MDA-MB-231 breast): > 100 µM; TGI (CCRF-CEM leukemia): > 100 µM; TGI (A498 renal): > 100 µM; TGI (SW-620 colon): > 100 µM; TGI (UACC-62 melanoma): > 100 µM; TGI (HS 578T breast): > 100 µM; TGI (786-0 renal): > 100 µM; TGI (NCI-H460 lung): > 100 µM; TGI (HCT-15 colon): > 100 µM; TGI (IGROV1 ovarian): > 100 µM; TGI (RXF 393 renal): > 100 µM; TGI (HT29 colon): > 100 µM; TGI (MDA-N): > 100 µM; TGI (OVCAR-8 ovarian): > 100 µM; TGI (SF-268 CNS): > 100 µM; TGI (HOP-92 NSCLC): > 100 µM; TGI (SF-295 CNS): > 100 µM; TGI (NCI-H226 lung): > 100 µM; TGI (MDA-MB-435): > 100 µM; TGI (MOLT-4 leukemia): > 100 µM; TGI (SF-539 CNS): > 100 µM; TGI (MCF7 breast): > 100 µM; TGI (M14 melanoma): > 100 µM; TGI (COLO 205 colon): > 100 µM; TGI (OVCAR-5 ovarian): > 100 µM; TGI (NCI/ADR-RES ovarian): > 100 µM; TGI (HOP-62 NSCLC): > 100 µM; TGI (KM12 colon): > 100 µM; TGI (PC-3 prostate): > 100 µM; TGI (SNB-19 CNS): 98.6 µM; TGI (NCI-H522 lung): > 100 µM; TGI (MALME-3M melanoma): > 100 µM; TGI (A549 NSCLC): > 100 µM; TGI (CAKI-1 renal): > 100 µM; TGI (OVCAR-4 ovarian): > 100 µM

**Q.** What does the source list for O=C1C=CC2(C=C1)CCC(=O)O2?
**A.** TGI (U251 CNS): 23.1 µM; TGI (TK-10 renal): 24.2 µM; TGI (HCC-2998 colon): 27.2 µM; TGI (LOX IMVI melanoma): 20.9 µM; TGI (SK-MEL-2 melanoma): 36.6 µM; TGI (ACHN renal): 34.2 µM; TGI (HCT-116 colon): 28 µM; TGI (BT-549 breast): 46.3 µM; TGI (SNB-75 CNS): 39.1 µM; TGI (SK-MEL-28 melanoma): > 100 µM; TGI (SN12C renal): 34.5 µM; TGI (DU-145 prostate): 31.5 µM; TGI (EKVX NSCLC): 43.8 µM; TGI (SK-MEL-5 melanoma): 29.8 µM; TGI (RPMI-8226 leukemia): 23.7 µM; TGI (UACC-257 melanoma): 80.2 µM; TGI (K-562 leukemia): > 100 µM; TGI (MDA-MB-231 breast): 23.9 µM; TGI (CCRF-CEM leukemia): 25.3 µM; TGI (A498 renal): > 100 µM; TGI (SW-620 colon): 37.5 µM; TGI (UACC-62 melanoma): 37.4 µM; TGI (HS 578T breast): > 100 µM; TGI (786-0 renal): 31 µM; TGI (NCI-H23 lung): 43.9 µM; TGI (NCI-H460 lung): 30.7 µM; TGI (UO-31 renal): 31.2 µM; TGI (HCT-15 colon): 54.3 µM; TGI (IGROV1 ovarian): 28.5 µM; TGI (RXF 393 renal): 28.3 µM; TGI (SR leukemia): > 100 µM; TGI (HT29 colon): > 100 µM; TGI (MDA-N): > 100 µM; TGI (OVCAR-8 ovarian): > 100 µM; TGI (SF-268 CNS): 51.6 µM; TGI (HOP-92 NSCLC): 26.6 µM; TGI (SF-295 CNS): 46.4 µM; TGI (NCI-H226 lung): > 100 µM; TGI (MDA-MB-435): 29.6 µM; TGI (MOLT-4 leukemia): > 100 µM; TGI (SF-539 CNS): 76.8 µM; TGI (MCF7 breast): 34.5 µM; TGI (M14 melanoma): > 100 µM; TGI (COLO 205 colon): 23.1 µM; TGI (OVCAR-5 ovarian): 46 µM; TGI (OVCAR-3 ovarian): 28.9 µM; TGI (NCI/ADR-RES ovarian): > 100 µM; TGI (HOP-62 NSCLC): 38.2 µM; TGI (KM12 colon): 29.9 µM; TGI (PC-3 prostate): 27.1 µM; TGI (SNB-19 CNS): 37.4 µM; TGI (NCI-H522 lung): 5.4 µM; TGI (MALME-3M melanoma): 19.6 µM; TGI (A549 NSCLC): 44.1 µM; TGI (CAKI-1 renal): 18.2 µM; TGI (OVCAR-4 ovarian): 29.9 µM

From PubChem BioAssay (NCI)
